The values that follow come from patent US9890117B2, “Benzamide compounds and related methods of use” (Northwestern University, priority 2012, dated 2018).

Data set [1] concerns the target T1, SIRT2 (Homo sapiens, UniProt Q8IXJ6).
T1 construct: recombinant active enzymes SIRT1, SIRT2, and the catalytically active fragment of SIRT3
T1 sequence (Q8IXJ6 1-389): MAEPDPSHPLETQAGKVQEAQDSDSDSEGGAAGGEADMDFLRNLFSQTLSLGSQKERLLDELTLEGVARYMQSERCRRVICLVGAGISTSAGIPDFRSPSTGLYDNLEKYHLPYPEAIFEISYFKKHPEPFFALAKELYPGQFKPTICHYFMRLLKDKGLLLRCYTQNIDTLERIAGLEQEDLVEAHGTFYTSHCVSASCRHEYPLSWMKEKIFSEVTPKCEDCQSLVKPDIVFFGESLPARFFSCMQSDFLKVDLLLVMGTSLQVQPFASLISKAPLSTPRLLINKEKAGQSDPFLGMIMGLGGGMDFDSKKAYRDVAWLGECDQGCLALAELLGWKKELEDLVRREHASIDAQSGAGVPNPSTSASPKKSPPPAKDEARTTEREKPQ
The data set can be described thus: Fluor-de-Lys biochemical sirtuin deacetylation assay, SIRT2. The following applies: 10 μM.

Counter-ions that a name gives are not always drawn.

As a reminder, the melting point is the temperature of the solid-liquid transition. Molecule `CN(c1ccc(Cl)cc1)S(=O)(=O)c1cccc(C(=O)Nc2ccc(C#N)cc2F)c1` [Compound 203Ab, 3-(N-(4-chlorophenyl)-N-methylsulfamoyl)-N-(4-cyano-2-fluorophenyl)benzamide] had a melting point of 158 to 159 °C.
By inhibition is commonly meant the share of the control response that was lost under treatment. For `CN(C(=O)c1cccc(S(=O)(=O)N(C)c2ccc(Cl)cc2)c1)c1ccc(C#N)cc1F` [Compound 203Ac, 3-(N-(4-chlorophenyl)-N-methylsulfamoyl)-N-(4-cyano-2-fluorophenyl)-N-methylbenzamide], the melting point was 169 to 170 °C. This molecule came in with an inhibition at 10 µM in data set [1] of 15%.
The like results for `CN(c1ccc(S(C)(=O)=O)cc1)S(=O)(=O)c1cccc(C(=O)Nc2ccc(Cl)cc2F)c1` [Compound 203Ae, N-(4-chloro-2-fluorophenyl)-3-(N-methyl-N-(4-(methylsulfonyl)phenyl)sulfamoyl)-benzamide] were, in that order, 182 to 183 °C and 26%.
`CN(c1ccc(CN)cc1)S(=O)(=O)c1cccc(C(=O)Nc2ccc(C#N)cc2)c1.Cl` [Compound 203Af, 3-(N-(4-(aminomethyl)phenyl)-N-methylsulfamoyl)-N-(4-cyanophenyl)benzamide hydrochloride]: the melting point was 169 to 171 °C. This molecule also came in with an inhibition at 10 µM in data set [1] of 15%.
The like results for `CN(C(=O)c1cccc(S(=O)(=O)N(C)c2ccc([S+](C)[O-])cc2)c1)c1ccc(Cl)cc1F` (stereo not drawn) [Compound 203Ag, N-(4-chloro-2-fluorophenyl)-N-methyl-3-(N-methyl-N-(4-(methylsulfinyl)phenyl)-sulfamoyl)benzamide] were, in that order, 104 to 106 °C and 14%.
The like results for `CN(C(=O)c1cccc(S(=O)(=O)N(C)c2ccc(S(C)(=O)=O)cc2)c1)c1ccc(Cl)cc1F` [Compound 203Ah, N-(4-chloro-2-fluorophenyl)-N-methyl-3-(N-methyl-N-(4-(methylsulfonyl)phenyl)-sulfamoyl)benzamide] were, in that order, 159 to 160 °C and 16%.
For `CN(c1ccc(S(C)(=O)=O)cc1)S(=O)(=O)c1cccc(C(=O)Nc2ccc(C#N)cc2F)c1` [Compound 203Ai, N-(4-cyano-2-fluorophenyl)-3-(N-methyl-N-(4-(methylsulfonyl)phenyl)-sulfamoyl)benzamide], the melting point fell in the range of 188 to 189 °C. The molecule further showed an inhibition at 10 µM in data set [1] of 16%.
With `CN(c1ccc([S+](C)[O-])cc1)S(=O)(=O)c1cccc(C(=O)Nc2ccc(C#N)cc2F)c1` (stereo not drawn) [Compound 203Aj, N-(4-cyano-2-fluorophenyl)-3-(N-methyl-N-(4-(methylsulfinyl)phenyl)sulfamoyl)-benzamide], the melting point fell in the range of 192 to 194 °C. The same molecule returned an inhibition at 10 µM in data set [1] of 10%.
The like results for `CN(C(=O)c1cccc(S(=O)(=O)N(C)c2ccc(S(C)(=O)=O)cc2)c1)c1ccc(C#N)cc1F` [Compound 203Ak, N-(4-cyano-2-fluorophenyl)-N-methyl-3-(N-methyl-N-(4-(methylsulfonyl)phenyl)-sulfamoyl)benzamide] were, in that order, 156 to 157 °C and 0%.
The like results for `CN(C(=O)c1cccc(S(=O)(=O)N(C)c2ccc([S+](C)[O-])cc2)c1)c1ccc(C#N)cc1F` (stereo not drawn) [Compound 203Al, N-(4-cyano-2-fluorophenyl)-N-methyl-3-(N-methyl-N-(4-(methylsulfinyl)phenyl)-sulfamoyl)benzamide] were, in that order, 148 to 150 °C and 0%.
In the case of `CN(c1ccc(Cl)cc1)S(=O)(=O)c1cc(C(=O)Nc2ccc(C#N)cc2)ccn1` [Compound 203Am, 2-(N-(4-chlorophenyl)-N-methylsulfamoyl)-N-(4-cyanophenyl)isonicotinamide], the melting point is 195 to 197 °C.
Consider `CN(c1ccc(Cl)cc1)S(=O)(=O)c1cc(C(=O)Nc2ccc([S+](C)[O-])cc2)ccn1` (stereo not drawn) [Compound 203An, 2-(N-(4-chlorophenyl)-N-methylsulfamoyl)-N-(4-(methylsulfinyl)phenyl)-isonicotinamide], for which the melting point was in the range of 172 to 174 °C. The same molecule displayed an inhibition at 10 µM in data set [1] of 28%.
Turning to `CN(c1ccc([S+](C)[O-])cc1)S(=O)(=O)c1cc(C(=O)Nc2ccc(Cl)cc2F)ccn1` (stereo not drawn) [Compound 203Aq, N-(4-chloro-2-fluorophenyl)-2-(N-methyl-N-(4-(methylsulfinyl)phenyl)sulfamoyl)-isonicotinamide], the melting point is 178 to 179 °C. This molecule returned an inhibition at 10 µM in data set [1] of 14%.
With `CN(C(=O)c1cccc(S(=O)(=O)N(C)c2ccc(Br)cc2)c1)c1ccc(Cl)cc1F` [Compound 203p, 3-(N-(4-bromophenyl)-N-methylsulfamoyl)-N-(4-chloro-2-fluorophenyl)-N-methylbenzamide], the melting point is 127 to 128 °C.
Molecule `CN(C(=O)c1cccc(S(=O)(=O)N(C)c2ccc(Br)cc2)c1)c1ccc(Br)cc1F` [Compound 203s, N-(4-bromo-2-fluorophenyl)-3-(N-(4-bromophenyl)-N-methylsulfamoyl)-N-methylbenzamide] had a melting point of 136 to 137 °C.
As to `CN(C(=O)c1cncc(CN(Cc2ccc(C#N)cc2)C2CC2)c1)c1ccc(Cl)cc1` [Compound 225p, N-(4-chlorophenyl)-5-(((4-cyanobenzyl)(cyclopropyl)amino)methyl)-N-methylnicotinamide hydrochloride], the inhibition at 10 µM in data set [1] was 0%.
Still for that read-out and setting: with `N#Cc1ccc(NC(=O)c2cccc(CN3CCc4cc(Br)ccc4C3)c2)cc1` [Compound 225q, 3-((6-bromo-3,4-dihydroisoquinolin-2(1H)-yl)methyl)-N-(4-cyanophenyl)benzamide hydrochloride] the figure was 80%; with `CC(=O)c1ccc(CN(Cc2cncc(C(=O)Nc3ccc(C#N)cc3)c2)C2CC2)cc1` [Compound 225r, 5-(((4-acetylbenzyl)(cyclopropyl)amino)methyl)-N-(4-cyanophenyl)nicotinamide hydrochloride], 10%; with `CC(=O)c1ccc(CN(Cc2cncc(C(=O)N(C)c3ccc(C#N)cc3)c2)C2CC2)cc1` [Compound 225s, 5-(((4-acetylbenzyl)(cyclopropyl)amino)methyl)-N-(4-cyanophenyl)-N-methylnicotinamide hydrochloride], 3%.
As for `O=C(Nc1ccc(Cl)cc1)c1cncc(CN(Cc2ccc(F)c(F)c2)C2CC2)c1` [Compound 225t, N-(4-chlorophenyl)-5-((cyclopropyl(3,4-difluorobenzyl)amino)methyl)nicotinamide hydrochloride], at 10 µM the inhibition in data set [1] was 9%.
Same read-out and setting: with `CC(=O)c1ccc(NC(=O)c2cncc(CN(Cc3ccc(F)c(F)c3)C3CC3)c2)cc1` [Compound 225u, N-(4-acetylphenyl)-5-((cyclopropyl(3,4-difluorobenzyl)amino)methyl)nicotinamide hydrochloride] the figure was 5%; with `O=C(Nc1ccc(C(F)(F)F)cc1)c1cncc(CN(Cc2ccc(F)c(F)c2)C2CC2)c1` [Compound 225v, 5-((cyclopropyl(3,4-difluorobenzyl)amino)methyl)-N-(4-(trifluoromethyl)phenyl)-nicotinamide hydrochloride], 3%.
As for `N#Cc1cccc(NC(=O)c2cncc(CN(Cc3ccc(F)c(F)c3)C3CC3)c2)c1` [Compound 225w, N-(3-cyanophenyl)-5-((cyclopropyl(3,4-difluorobenzyl)amino)methyl)nicotinamide hydrochloride], testing at 10 µM in data set [1] gave an inhibition of 20%.
On the same count and under the same terms, with `CC(=O)c1ccc(CN(Cc2cccc(C(=O)Nc3ccc(C#N)cc3)c2)C2CC2)cc1` [Compound 225x, 3-(((4-acetylbenzyl)(cyclopropyl)amino)methyl)-N-(4-cyanophenyl)benzamide hydrochloride] the figure was 24%.
Consider `O=C(Cc1ccc(Cl)cc1)c1cccc(S(=O)(=O)N2CCCCCC2)c1` [Compound 231a, 1-(3-(azepan-1-ylsulfonyl)phenyl)-2-(4-chlorophenyl)ethanone], for which the melting point lay in the range of 135 to 136 °C.
The molecule `CN(c1ccc(Cl)cc1)S(=O)(=O)c1cccc(NC(=O)Nc2ccc(Cl)cc2)c1` [Compound 233a, N-(4-chlorophenyl)-3-(3-(4-chlorophenyl)ureido)-N-methylbenzenesulfonamide] gave an inhibition at 10 µM in data set [1] of 0%.
Turning to `N#Cc1ccc(/N=C(/N)c2cccc(OCc3cccc(F)c3F)c2)cc1` [Compound 234a, N′-(4-cyanophenyl)-3-((2,3-difluorobenzyl)oxy)benzimidamide hydrochloride], in data set [1], the inhibition at 10 µM was found to be 12%.
The same measure, in the same setting: under `N#Cc1ccc(COc2cccc(/C(N)=N\c3ccc(C#N)cc3)c2)cc1` [Compound 234b, 3-((4-cyanobenzyl)oxy)-N′-(4-cyanophenyl)benzimidamide hydrochloride] stands 12%; under `C[C@@H](Oc1cccc(/C(N)=N\c2ccc(C#N)cc2)c1)c1ccc(C#N)cc1` [Compound 234c, (R)—N′-(4-cyanophenyl)-3-(1-(4-cyanophenyl)ethoxy)benzimidamide hydrochloride], 39%; under `COc1ccc(N(C)S(=O)(=O)c2cccc(/C(N)=N\c3ccc(C#N)cc3)c2)cc1` [Compound 234d, N′-(4-cyanophenyl)-3-(N-(4-methoxyphenyl)-N-methylsulfamoyl)benzimidamide hydrochloride], 12%.
The same measure, in the same setting: under `N/C(=N/c1cccc([N+](=O)[O-])c1)c1cccc(S(=O)(=O)N2CCCCCC2)c1` [Compound 234e, 3-(azepan-1-ylsulfonyl)-N′-(3-nitrophenyl)benzimidamide] stands 27%.
